# From patent US20090043378A1, “Biocompatible Polymer System for Extended Drug Release” (priority 2007, published 2009)
# Key:
# [1] = test system: Monocytic U937 cells; test: Monocyte adhesion to polymer coated wells (calcein uptake); type: cell-based
# Protocol: Monocytic U937 cells were purchased from ATCC Cell Biology Collection and maintained in culture according to vendor recommendations. U937 cells were seeded at 1×10^5/well onto polymer coated 96 well plates. The cells were stimulated with lipopolysaccharide (LPS) (100 ng/mL) and phorbol-12-myristate-13-acetate (PMA) (100 ng/mL) to induce differentiation and inflammatory activation. […] Adhesion of U937 cells to the polymer scaffold was assessed by calcein uptake as detailed in the following protocol. U937 cells were fluorescently labeled by incubation with calcein (1 mg/mL) for 30 minutes. Calcein is a fluorescent dye hydrolyzed by esterases in viable cells. The percent uptake of calcein is directly proportional to the number of viable cells in the well. The percent of cell adhesion was determined by reading the fluorescent measurements prior to and after gentle PBS washing of the adherent monocytes from the polymer coated plates. […] To calculate the relative percent adhesion, the ratio between the fluorescent measurement prior to and after gentle PBS washing of the adherent monocytes from the polymer coated plates was first determined. […]
# In order to evaluate, in vitro, the polymers potential to elicit an inflammatory response, the adhesion of activated monocytes to the components of various polymers were measured, individually and in combination (C10, C19, and C10/C19).
# [2] = Octanol-water partition coefficient of zotarolimus; type: physicochemical
# Excerpt: In one embodiment, the drug is zotarolimus (Formula 1) ([…], molecular weight=966.5 g/mol), a tetrazole-containing macrocyclic immunosuppressant. […] The mechanism of action of zotarolimus is binding to FKBP12, leading to the formation of a trimeric complex with the protein kinase mTOR (mammalian target of rapamycin) thereby inhibiting its activity. Inhibition of mTOR results in the inhibition of protein phosphorylation events associated with translation of mRNA and cell cycle control.
# [3] = physchem; type: physicochemical
# Excerpt: The hydrophobicity of zotarolimus enhances its absorption across the cellular membrane leading to inhibition of neointimal proliferation of the target tissues.
Molecule,"monocyte adherence, fold induction over non-stimulated, negative control cells [1] [fold]",octanol-water partition coefficient ([2]; pH 6.5),octanol-water partition coefficient ([2]; pH 7.4),"solubility ([3]; pH 6.5, aqueous buffer) [µg/mL]","solubility ([3]; pH 7.4, aqueous buffer) [µg/mL]"
Poly(butyl methacrylate) [PBMA],12.6,–,–,–,–
CO[C@H]1C[C@@H]2CC[C@@H](C)[C@@](O)(O2)C(=O)C(=O)N2CCCC[C@H]2C(=O)O[C@H]([C@H](C)C[C@@H]2CC[C@H](n3cnnn3)[C@H](OC)C2)CC(=O)[C@H](C)/C=C(\C)[C@@H](O)[C@@H](OC)C(=O)[C@H](C)C[C@H](C)/C=C/C=C/C=C/1C [zotarolimus],–,> 4.5,> 4.5,0.47,0.53
